Measurements reported in US5925678A, “Use of N-acyl derivatives of aminoalcohols in the manufacture of a medicament for practicing neuroprotective action in neuropathological states connected with excitotoxicity” (Lifegroup S.P.A., priority 1994, dated 1999).
Structures can show the parent of a compound that is named as a salt. Where two headings read alike, the source gives them in different places. One block for each compound: values may come before it.

Experiments:
[1] = Solubility in organic solvents; type: physicochemical; settings: for solubility: organic solvent or mixture
Solubility in water = type: physicochemical
[2] = tested on: Granular cell cultures from mouse cerebellum exposed to Glu; assay: Neuroprotective effect against excitotoxicity of Glu in primary neuronal cultures (cell survival, MTT); type: cell-based; settings: 24 h
Experimental: In vitro evaluation of the neuroprotective effect against excitotoxicity of Excitatory Amino Acids in primary neuronal cultures of the following compounds was carried out:
The compounds under evaluation, referred to as a, b, c, and d, were solubilized in DMSO and culture medium to obtain concentrations of 100 μM (4% DMSO) and 60 μM (3% DMSO) and added to the culture mediums according to different treatment schedules in order to determine the time-effect relationship vs. the incubation time and the exposure to the neurotoxic stimulus.
Granular cell cultures were obtained from postnatal day 8-9 mouse Balb-6 cerebellum. The cells were suspended in EBM+2 mM L-glutamine, 100 U/ml penicillin, […], 25 mM KCl and 10% fetal calf serum, plated on polylysine substrate, cultured for 8-10 days and then exposed to Glu 500 μM at room temperature for 5 min. The compounds being evaluated were added to the cultures at the same time of exposure, soon after exposure or 15 min after exposure to Glu, and cultured for 60 minutes; cultures were then washed and brought back to the original medium. The number of survived cells was evaluated by […] method (MTT) 24 hours after excitotoxic stimulation.

[3] = n-octanol, read-out: solubility in n-octanol
[4] = dmso, read-out: solubility in DMSO
[5] = A: compound added at the same time of exposure to Glu (500 μM, 5 min), 60 μM, % of control values, average of three tests, Glu alone 44, read-out: survived cells (%), treatment A, 60 μM
[6] = C: compound added 15 min after exposure to Glu (500 μM, 5 min), 60 μM, % of control values, average of three tests, Glu alone 44, read-out: survived cells (%), treatment C, 60 μM
[7] = aqueous buffer, 50 mM phosphate buffer, pH 7.4, NaCl 0.9%, read-out: solubility in water: 50 mM phosphate buffer
[8] = A: compound added at the same time of exposure to Glu (500 μM, 5 min), % of control values, average of three tests, Glu alone 40, read-out: survived cells (%), treatment A, 100 μM
[9] = B: compound added soon after exposure to Glu (500 μM, 5 min), % of control values, average of three tests, Glu alone 40, read-out: survived cells (%), treatment B, 100 μM
[10] = C: compound added 15 min after exposure to Glu (500 μM, 5 min), % of control values, average of three tests, Glu alone 40, read-out: survived cells (%), treatment C, 100 μM

Structure (SMILES): CCCCCCCCCCCCCCCC(=O)NCCOC(C)=O [Example 2, N-(2-Acetoxyethyl)-Palmitoylamide]
solubility [1, 3]: > 5000 µg/mL
solubility in water (Solubility in water; water): poorly soluble

solubility [1, 4]: > 10000 µg/mL
solubility (Solubility in water; [7]): > 1000 µg/mL
solubility in water (Solubility in water; water): poorly soluble
Structure (SMILES): CCCCCCCCCCCCCCCC(=O)NCCOP(=O)(O)O [Example 5, N-Palmitoylethanolamide Phosphate]
viability at 60 µM [2, 5]: 68%
viability at 60 µM ([2]; B: compound added soon after exposure to Glu (500 μM, 5 min), 60 μM, % of control values, average of three tests, Glu alone 44, read-out: survived cells (%), treatment B, 60 μM): 99%
viability at 60 µM [2, 6]: 90%

solubility in organic solvents [1]: hot methanol, CH3 Cl, DMSO
solubility in water (Solubility in water; water): insoluble
Structure (SMILES): CCCCCCCCCCCCCCCC(=O)NCCO [Example 1, N-(2-Hydroxyethyl)-Palmitoylamide]
viability at 60 µM [2, 5]: 86%
viability at 100 µM [2, 8]: 67%
viability at 100 µM [2, 9]: 84%
viability at 60 µM [2, 6]: 101%
viability at 100 µM [2, 10]: 76%

Structure (SMILES): CCCCC/C=C\C/C=C\C/C=C\C/C=C\CCCC(=O)NCCO [Example 10, N-(2-Hydroxyethyl)-Arachidonamide]
solubility [1, 4]: > 10000 µg/mL
solubility ([1]; ethanol, read-out: solubility in ethanol): > 10000 µg/mL
viability at 60 µM ([2]; read-out: survived cells (%), treatment A, 60 μM): 95%
solubility in water (Solubility in water; water): poorly soluble

solubility [1, 4]: > 5000 µg/mL
solubility in water (Solubility in water; water): poorly soluble
solubility (Solubility in water; water, as potassium salt, read-out: solubility in water as potassium salt): > 1000 µg/mL
Structure (SMILES): CCCCCCCCCCCCCCCC(=O)NCCOC(=O)CCC(=O)O [Example 7, N-(2-Hydroxyethyl)-Palmitoylamide Succinate Acid]

Structure (SMILES): N[C@@H](CCC(=O)O)C(=O)O [Glu, glutamic acid, reference compound]
viability at 500 µM ([2]; read-out: survived cells (%), Glu alone, 60 μM column): 44%
viability at 500 µM ([2]; read-out: survived cells (%), Glu alone, 100 μM column): 40%

solubility [1, 4]: > 10000 µg/mL
Structure (SMILES): O=C(CCCCCCCC(=O)NCCO)NCCO [Example 9, N,N'-Bis-(2-Hydroxyethyl)-Nonandiamide]
viability at 100 µM [2, 8]: 68%
viability at 100 µM [2, 9]: 92%
viability at 100 µM [2, 10]: 87%

Structure (SMILES): CC(=O)OCCNC(=O)c1ccccc1 [Example 3, N-(2-Acetoxyethyl)-Benzoylamide]
solubility [1, 4]: > 10000 µg/mL
solubility [1, 3]: > 10000 µg/mL
solubility in water (Solubility in water; water): poorly soluble

solubility ([1]; DMSO, product in acid form, read-out: solubility in DMSO (product in acid form)): > 10000 µg/mL
solubility (Solubility in water; water, read-out: solubility in water): > 10000 µg/mL
Structure (SMILES): O=C(/C=C/CCCCCCCCC(=O)NCCOP(=O)(O)O)NCCOP(=O)(O)O [Example 6, N,N'-Bis(2-Hydroxyethyl)-Dodecenediamide Diphosphate Disodium Salt]

Structure (SMILES): CC(=O)OCCNC(=O)/C=C/C(=O)NCCOC(C)=O [Example 4, N,N'-Bis(2-Acetoxyethyl)-Fumaroylamide]
solubility [1, 4]: > 10000 µg/mL
solubility in water (Solubility in water; water): poorly soluble

solubility [1, 4]: > 10000 µg/mL
solubility (Solubility in water; [7]): > 1000 µg/mL
solubility in water (Solubility in water; water): poorly soluble
Structure (SMILES): O=C(O)CCC(=O)OCCNC(=O)C=CCCCCCCCCC(=O)NCCOC(=O)CCC(=O)O [Example 8, N,N'-Bis(2-Hydroxyethyl)-Dodecenediamide Disuccinate Acid]
